Data as given in patent US20120177690A1, “USE OF RAPAMYCIN DERIVATIVES IN VASCULOPATHIES AND XENOTRANSPLANTATION” (Novartis AG, priority 1996, published 2012).

Assays:
kidney allograft = test: Chronic allograft rejection, rat kidney allograft model (DA to Lewis); assay type: in vivo
Procedure: The kidney of a male DA (RTI^a) rat is orthotopically transplanted into a male Lewis (RTI^1) recipient. In total 24 animals are transplanted. All animals are treated with cyclosporine A at 7.5 mg/kg/day per as for 14 days starting on the day of transplantation, to prevent acute cellular rejection. Contralateral nephrectomy is not performed. Each experimental group treated with a distinct dose of a compound of formula I or placebo comprises six animals.
Starting at day 53-64 after transplantation, the recipient animals are treated per os for another 69-72 days with a compound of formula I or receive placebo. At 14 days after transplantation animals are subjected to graft assessment by magnetic resonance imaging (MRI) with perfusion measurement of the kidneys (with comparison of the grafted kidney and the own contralateral kidney). This is repeated at days 53-64 after transplantation and at the end of the experiment. The animals are then autopsied. Rejection parameters such as MRI score, relative perfusion rate of the grafted kidney and histologic score of the kidney allograft for cellular rejection and vessel changes are determined and statistically analyzed. Administration of a compound of formula I, e.g. Compound A, at a dose of 0.5 to 2.5 mg/kg in this rat kidney allograft model yields a reduction in all above mentioned rejection parameters.

aorta allograft = test: Aorta transplantation in the rat (DA to Lewis); assay type: in vivo; settings: per os in microemulsion, 2.5 mg/kg/day for 7 weeks and 0.63-5.0 mg/kg/day for 11 weeks
Procedure: These include infiltration into the adventitia of mononuclear cells (lymphocytes, macrophages, some plasma cells), and thickening of the intima.
Donor aorta between the branch of the renal artery and the start of the caudal mesenteric aorta, about 1 cm in length, is harvested from a male DA (RTI^a) rat and transplanted orthotopically in a male Lewis (RTI^1) rat. Weekly after transplantation, the body weight is recorded. At autopsy, the graft with part of the aorta of the recipient just above and below the transplant is removed. It is perfused ex vivo with phosphate-buffered saline supplemented with 2% paraformaldehyde and 2.5% glutaraldehyde for about 2 minutes, then for 24 hours fixed by immersion fixation in the same solution, and thereafter fixed in 4% buffered formalin. Pieces of the graft are embedded in paraffin, in such a way that both a transversal section and a longitudinal section is made of the grafted aorta and the recipient's own aorta.
Sections of 4 μm thickness are stained by hematoxylin-eosin, elastica-von-Gieson and periodic-acid-Schiff. Apart from conventional light microscopy, images are recorded by confocal laser scanning microscopy. From each section, four areas are scanned, and from each area the thickness of the intima and intima+media is measured at five locations. […]

carotid artery = test: Angioplasty, balloon catheter injury of the left common carotid artery; assay type: in vivo, RoRo rats; settings: for inhibition of neointima formation: day -3 to day +14
Procedure: Studies on angioplasty are done in the model of balloon catheter injury: Balloon catheterization is performed on day 0, essentially as described by Powell et al. (1989). Under Isofluorane anaesthesia, a Fogarty 2 F catheter is introduced into the left common carotid artery via the external carotid and inflated (distension≈10 μl H2O). The inflated balloon is withdrawn along the length of the common carotid three times, the latter two times whilst twisting gently to obtain a uniform de-endothelialization. The cathethcr is then removed, a ligature placed around the external carotid to prevent bleeding and the animals allowed to recover.
2 groups of 12 RoRo rats (400 g. approximately 24 weeks old) are used for the study: one control group and one group receiving the compound of formula I. The rats are fully randomized during all handling, experimental procedures and analysis.
The compound to be tested is administered p.o. (gavage) starting 3 days before balloon injury (day −3) until the end of the study, 14 days after balloon injury (day +14). Rats are kept in individual cages and allowed food and water ad libidum.
The rats are then anaesthetized with Isofluorane, a perfusion catheter inserted through the left ventricle and secured in the aortic arch, and an aspiration cannula inserted into the right ventricle. […] The perfusion pressure is 150 mmHg at the tip of the cannula (≈100 mmHg in the carotid artery), as determined in a preliminary experiment by introducing a cannula attached to a pressure transducer into the external carotid). […]
Sections 1-2 μm thick are cut from the middle section of each carotid with a hard metal knife on a rotary microtome and stained for 2 min with Giemsa stain. About 5 sections from each carotid are thus prepared and the cross-sectional area of the media, neointima and the lumen morphometrically evaluated by means of an image analysis system (MCID, Toronto, Canada).

hamster heart xenograft = test: In vivo heart xenotransplantation (hamster-to-rat)
Source text: The hamster-into-rat xenograft combination is a so-called difficult concordant combination. […] This is visualized in histology by destruction of blood vessels, exsudation and extravasation of erythrocytes, and influx by polymorpho- nuclear granulocytes: often there are signs of hemorrhage and thrombosis. […] This is visualized in histology by influx of mononuclear cells, including lymphocytes, lymphoblastoid cells, and macrophages, and destruction of the myocyte parenchyma. The inhibition of cellular rejection requires more immuno-suppression than that of allografts. Congenitally athymic (mu/mu) rats lack a competent (thymus-dependent) cellular immune system and generally are unable to reject allografts.
The graft is monitored daily by palpation of the abdomen. Rejection is concluded in case of cessation of heart beat. Animals are weighed weekly. In the present series of experiments, the endpoint is set to 28 days. Animals are subjected to autopsy; apart from the graft, weight and histology is assessed for thymus, spleen, liver, seminal vesicles and testes. Blood is taken and processed to serum for the determination of cytolytic anti-hamster erythrocyte antibody and hemolytic complement activity.

[1] = 4-week toxicity study in rats; assay type: in vivo
Procedure: (§1) Compounds of formula I are well tolerated at dosages required for use in accordance with the present invention. For example, the NTEL for Compound A in a 4-week toxicity study is 0.5 mg/kg/day in rats and 1.5 mg/kg/day in monkeys.

[2] = 4-week toxicity study in monkeys; assay type: in vivo
Procedure: as §1

[3] = 2.5 mg/kg/day per os, vs placebo group

Q: Which results are given for `CO[C@H]1C[C@@H]2CC[C@@H](C)[C@@](O)(O2)C(=O)C(=O)N2CCCC[C@H]2C(=O)O[C@H]([C@H](C)C[C@@H]2CC[C@@H](OCCO)[C@H](OC)C2)CC(=O)[C@H](C)/C=C(\C)[C@@H](O)[C@@H](OC)C(=O)[C@H](C)C[C@H](C)/C=C/C=C/C=C/1C` [Compound A, 40-O-(2-hydroxy)ethyl-rapamycin]?
A: MRI score of rejection (kidney allograft; [3]): significantly lower; histologic score for cellular rejection and vessel changes (kidney allograft; [3]): significantly lower; reduction in perfusion rate assessed by MRI (kidney allograft; [3]): significantly lower; rejection parameters (MRI score, relative perfusion rate of the grafted kidney, histologic score for cellular rejection and vessel changes) (kidney allograft; dose of 0.5 to 2.5 mg/kg per os, from day 53-64 after transplantation for 69-72 days): reduction; graft infiltration (aorta allograft): significantly inhibit; neointima formation (aorta allograft): significantly inhibit; inhibition of neointima formation (carotid artery; 0.5 mg/kg p.o. daily): 50%; inhibition of neointima formation (carotid artery; 2.5 mg/kg p.o. daily): 75%; intimal thickening (carotid artery; p.o. day -3 to day +14, compared to the control animals): significantly less; graft survival (hamster heart xenograft; athymic recipients): prolonged graft survival; graft survival (hamster heart xenograft; euthymic recipients): prolonged graft survival; NTEL [1]: 0.5 mg/kg/day; NTEL [2]: 1.5 mg/kg/day
